Results on 35 molecules are retold here after US6534546B1 (Chugai Seiyaku Kabushiki Kaisha, priority 1994, dated 2003).

Structures can show the parent of a compound that is named as a salt.

For one assay, the target named is T1, E-cNOS (Type 3) (Bos taurus, UniProt P29473).
T1 construct: the resulting supernatant was used as the crude enzyme sample of E-cNOS; endogenous in cells; host or cells: CPAE (cow pulmonary arterial endothelium cells), 1% Triton X-100 extract, 100,000 x g supernatant
T1 sequence (P29473 2-1205): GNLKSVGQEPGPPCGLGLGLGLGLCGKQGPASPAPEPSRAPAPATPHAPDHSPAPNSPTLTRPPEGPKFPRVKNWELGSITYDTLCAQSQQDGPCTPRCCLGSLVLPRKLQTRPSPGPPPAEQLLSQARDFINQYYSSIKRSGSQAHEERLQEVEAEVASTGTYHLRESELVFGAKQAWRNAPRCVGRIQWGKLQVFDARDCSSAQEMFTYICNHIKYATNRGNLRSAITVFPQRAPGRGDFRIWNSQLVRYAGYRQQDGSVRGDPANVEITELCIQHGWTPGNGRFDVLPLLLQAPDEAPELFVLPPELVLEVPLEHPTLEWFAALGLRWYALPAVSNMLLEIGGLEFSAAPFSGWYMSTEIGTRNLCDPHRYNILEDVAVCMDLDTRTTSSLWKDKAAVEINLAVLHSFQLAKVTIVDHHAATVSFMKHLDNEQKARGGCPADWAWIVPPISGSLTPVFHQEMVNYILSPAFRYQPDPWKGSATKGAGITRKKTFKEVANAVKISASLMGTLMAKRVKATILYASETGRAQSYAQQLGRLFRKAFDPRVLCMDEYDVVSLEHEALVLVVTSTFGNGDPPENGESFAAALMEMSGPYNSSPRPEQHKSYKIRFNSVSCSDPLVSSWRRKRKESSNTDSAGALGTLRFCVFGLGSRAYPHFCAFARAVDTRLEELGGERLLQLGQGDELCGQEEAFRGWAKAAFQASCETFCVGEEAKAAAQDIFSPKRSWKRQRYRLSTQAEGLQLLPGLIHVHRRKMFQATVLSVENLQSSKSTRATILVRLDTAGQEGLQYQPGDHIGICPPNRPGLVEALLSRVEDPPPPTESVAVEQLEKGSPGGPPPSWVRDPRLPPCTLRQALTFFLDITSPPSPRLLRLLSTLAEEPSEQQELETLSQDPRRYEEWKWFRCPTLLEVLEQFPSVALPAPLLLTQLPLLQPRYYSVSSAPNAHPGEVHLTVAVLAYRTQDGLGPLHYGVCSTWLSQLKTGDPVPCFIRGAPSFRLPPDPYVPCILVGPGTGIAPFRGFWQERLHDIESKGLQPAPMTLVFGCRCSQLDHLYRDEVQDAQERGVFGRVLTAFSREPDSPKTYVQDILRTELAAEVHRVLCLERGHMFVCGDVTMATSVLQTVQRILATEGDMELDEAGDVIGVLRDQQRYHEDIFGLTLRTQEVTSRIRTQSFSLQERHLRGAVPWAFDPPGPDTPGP
Nature of the assay: biochemical.
Conditions: not given
As for `CSC(=N)Nc1cccc(C2(N)CCCCC2)c1` [Example 142, N-(1-(3-(S-methylisothioureido)phenyl)cyclohexyl)amine dihydrochloride], the IC50 was determined as 663 nM.

On to `CCSC(=N)Nc1cccc(C2(N)CCCCC2)c1` [Example 144, N-(1-(3-(S-ethylisothioureido)phenyl)cyclohexyl)amine dihydrochloride], for which the concentration for half-maximal inhibition (IC50) stood at 898 nM.

With `NC(=N[N+](=O)[O-])Nc1cccc(C2(N)CCCCC2)c1` [Example 169, N-(1-(3-(N′-nitroguanidino)phenyl)cyclohexyl)amine hydrochloride], it took 41.5 nM to reach half-maximal inhibition (IC50).

`CCSC(=N)Nc1ccc(CC(C)(C)N)cc1` [Example 193, N-(1,1-dimethyl-2-(4-(S-ethylisothioureido)phenyl)ethyl)amine dihydrochloride] had a half-inhibitory concentration (IC50) of 1540 nM.

Take `CCN=C(N)Nc1cccc(C2(N)CCCCC2)c1` [Example 234, N-(1-(3-(N′-ethylguanidino)phenyl)cyclohexyl)amine dihydrochloride]: half-maximal inhibition (IC50) required 1170 nM.

For `CCN=C(N)Nc1ccc(CCN)c(F)c1` [Example 258, N-(2-(4-(N′-ethylguanidino)-2-fluorophenyl)ethyl)amine dihydrochloride], the IC50 worked out at 1090 nM.

The assay is the same for the next values; noted with them: mean of one to four independent experiments; CPAE cell crude enzyme; read-out: IC50 value, E-cNOS (Type 3).
For `CCSC(=N)Nc1ccc(C(C)(C)CN)cc1` [Example 185, N-(2-(4-(S-ethylisothioureido)phenyl)-2-methylpropyl)amine dihydrochloride], the IC50 turned out to be 3170 nM.

Staying with this assay, now noted: mean of one to four independent experiments; crude enzyme, 100 nM L-[3H]arginine; read-out: IC50 value, E-cNOS (Type 3).
For `CCSC(=N)Nc1cccc(CNC)c1` [Example 47, N-(3-(S-ethylisothioureido)phenylmethyl)methylamine dihydrochloride], the IC50 is 72.9 nM.

For `CCSC(=N)Nc1cccc(C(C)NC)c1` (centres unmarked) [Example 112, N-(1-(3-(S-ethylisothiourido)phenyl)ethyl)methylamine dihydrochloride], the IC50 came to 408 nM.

Take `CCSC(=N)Nc1cccc(CN)c1Cl` [Example 137, N-(2-chloro-3-(S-ethylisothioureido)phenylmethyl)amine dihydrochloride]: the IC50 was found to be 485 nM.

Regarding `CSC(=N)Nc1cccc(C2(N)CCCC2)c1` [Example 151, N-(1-(3-(S-methylisothioureido)phenyl)cyclopentyl)amine dihydrochloride], the half-inhibitory concentration (IC50) is 262 nM.

In the case of `CCSC(=N)Nc1cccc(C2(N)CCCC2)c1` [Example 153, N-(1-(3-(S-ethylisothioureido)phenyl)cyclopentyl)amine dihydrochloride], the IC50 was determined as 423 nM.

Consider `CSC(=N)Nc1cccc(C2(N)CCC2)c1` [Example 160, N-(1-(3-(S-methylisothioureido)phenyl)cyclobutyl)amine dihydrochloride], for which the IC50 was 477 nM.

On to `CCSC(=N)Nc1cccc(C2(N)CCC2)c1` [Example 162, N-(1-(3-(S-ethylisothioureido)phenyl)cyclobutyl)amine dihydrochloride], for which the IC50 stood at 576 nM.

With `CCSC(=N)Nc1cccc(C2(N)CC2)c1` [Example 167, N-(1-(3-(S-ethylisothioureido)phenyl)cyclopropyl)amine dihydrochloride], the IC50 was found to be 366 nM.

Turning to `NC(=N[N+](=O)[O-])Nc1cccc(C2(N)CCCC2)c1` [Example 171, N-(1-(3-(N′-nitroguanidino)phenyl)cyclopentyl)amine hydrochloride], the IC50 was determined as 29.2 nM.

In the case of `N=C(Nc1cccc(C2(N)CCC2)c1)N[N+](=O)[O-]` [Example 173, N-(1-(3-(N′-nitroguanidino)phenyl)cyclobutyl)amine hydrochoride], the half-inhibitory concentration (IC50) stood at 24.1 nM.

Consider `CCSC(=N)Nc1cccc(C(C)N)c1` (centres unmarked) [Example 175, N-(1-(3-(S-ethylisothioureido)phenyl)ethyl)amine dihydrochloride], for which the IC50 is 200 nM.

On to `CCSC(=N)Nc1cccc(C(N)CC)c1` (centres unmarked) [Example 177, N-(1-(3-(S-ethylisothioureido)phenyl)propyl)amine dihydrochloride], for which the IC50 stood at 510 nM.

With `CCSC(=N)Nc1ccc(C(CN)C(=O)OC)cc1` (centres unmarked) [Example 226, 3-amino-2-(4-(S-ethylisothioureido)phenyl)propionic acid methyl ester dihydrochloride], the IC50 came to 1440 nM.

As for `CCN=C(N)Nc1cccc(C2(N)CCCC2)c1` [Example 236, N-(1-(3-(N′-ethylguanidino)phenyl)cyclopentyl)amine dihydrochloride], the IC50 amounted to 325 nM.

As for `CCN=C(N)Nc1cccc(C2(N)CCC2)c1` [Example 238, N-(1-(3-(N′-ethylguanidino)phenyl)cyclobutyl)amine dihydrochloride], the IC50 was 1160 nM.

For the molecule `CN(C)c1ccc(NC(N)=N[N+](=O)[O-])cc1CN` [Example 281, N-(2-dimethylamino-5-(N′-nitroguanidino)phenylmethyl)amine dihydrochloride], the IC50 worked out at 1620 nM.

For the molecule `CCN=C(N)Nc1ccc(N(C)CC)c(CN)c1` [Example 285, N-(5-(N′-ethylguanidino)-2-(N-ethyl-N-methyl-amino)phenylmethyl)amine trihydrochloride], the IC50 is 7310 nM.

Consider `CCSC(=N)Nc1ccc(N(C)CC)c(CN)c1` [Example 288, N-(5-(S-ethylisothioureido)-2-(N-ethyl-N-methylamino)phenylmethyl)amine trihydrochloride], for which the 50% inhibitory concentration (IC50) stood at 1260 nM.

For `CCSC(=N)Nc1ccc(OC)c(CN)c1OC` [Example 298, N-(2,6-dimethoxy-3-(S-ethylisothioureido)phenylmethyl)amine dihydrochloride], the IC50 amounted to 4140 nM.

In the case of `CCN=C(N)Nc1cccc(C(C)(C)N)c1` [Example 300, N-(1-(3-(N′-ethylguanidino)phenyl)-1-methylethyl) amine dihydrochloride], the IC50 came out at 492 nM.

For `CCN(C)C(=N)Nc1cccc(CN)c1` [Example 305, N-(3-(N′-ethyl-N′-methylguanidino)phenylmethyl)amine dihydrochloride], the IC50 was determined as 1710 nM.

For `CCSC(=N)Nc1ccc(F)c(CN)c1` [Example 317, N-(5-(S-ethylisothioureido)-2-fluorophenylmethyl)amine dihydrochloride], the IC50 came out at 239 nM.

Regarding `NCc1cc(NC(N)=N[N+](=O)[O-])ccc1OCc1ccccc1` [Example 341, N-(2-benzyloxy-5-(N′-nitroguanidino)phenylmethyl)amine hydrochloride], the half-inhibitory concentration (IC50) was 874 nM.

In the case of `CCSC(=N)Nc1cccc(CNN)c1` [Example 355, 3-(S-ethylisothioureido)phenylmethylhydrazine trihydrochloride], the IC50 stood at 662 nM.

As for `CN=C(N)Nc1cccc(CN)c1` [Example 367, N-(3-(N′-methylguanidino)phenylmethyl)amine dihydrochloride], the IC50 turned out to be 3710 nM.

For the molecule `CCSC(=N)Nc1cccc(CN(C)C)c1` [Example 372, N-(3-(S-ethylisothioureido)phenylmethyl)dimethylamine], the IC50 turned out to be 360 nM.

For the molecule `CCN=C(N)Nc1cccc(CN(C)C)c1` [Example 374, N-(3-(N′-ethylguanidino)phenylmethyl)dimethylamine dihydrochloride], the 50% inhibitory concentration (IC50) was determined as 1290 nM.

On to `CCN=C(N)Nc1cccc(CNC)c1` [Example 376, N-(3-(N′-ethylguanidino)phenylmethyl)methylamine dihydrochloride], for which the IC50 worked out at 339 nM.

A word on the IC50: it is the concentration that inhibits the measured activity by half.
